The results in this text go back to US20170143701A1, “CARBOHYDRATE METABOLISM-AMELIORATING AGENT” (SUNTORY HOLDINGS LIMITED, priority 2014, published 2017).

This test has as its system C57/BL6J mice. The test can be described thus: In vivo plasma GLP-1 level-increasing action: plasma active GLP-1 level (ELISA) after oral administration. The following applies: 10 mg/kg oral; for Significant difference (p < 0.05) vs control group, plasma active GLP-1 level: 30 minutes, Student's t-test; for Plasma active GLP-1 level (relative value to control group as 100), average value: blood 30 minutes after, 0.5% CMC-Na group = 100. On the procedure:
Seven-week-old male C57/BL6J mice were purchased from CLEA Japan, Inc. for use, and they were subjected to an experiment after 1 week of a habituation period.
After the habituation period, the mice were subjected to 5.5 hours of food deprivation and 2 hours of water deprivation. Thereafter, a cyclic dipeptide dissolved or suspended in a 0.5% CMC-Na aqueous solution in 10 mg/kg was orally administered to each mouse forcibly. After 30 minutes, the blood was collected from the abdominal vena cava under anesthesia, and 1 μL of heparin sodium and 1 μL of 10 mM Sitagliptin phosphate were added to each collected blood, which was then subjected to centrifugation at 8000 rpm for 10 minutes to recover the plasma, and the plasma active GLP-1 level was measured by using the ELISA kit. In the analysis, the active GLP-1 level for a group administered with 0.5% CMC-Na aqueous solution was defined as 100, and relative values thereto were used.
(In general: ELISA stands for enzyme-linked immunosorbent assay.)

On to `O=C1CNC(=O)[C@H](Cc2ccccc2)N1` [compound 8, Cyclo(Gly-Phe)], for which, where the note is “Table 9, Experiment 4”, the “Significant difference (p < 0.05) vs control group, plasma active GLP-1 level” value is “No” and the “Plasma active GLP-1 level (relative value to control group as 100), average value” was 85.

As for `CC(C)[C@@H]1NC(=O)[C@H](C(C)C)NC1=O` [compound 11, Cyclo(Val-Val)], where the note is “Table 9, Experiment 4”, the “Significant difference (p < 0.05) vs control group, plasma active GLP-1 level” value is listed as “No” and the “Plasma active GLP-1 level (relative value to control group as 100), average value” is reported as 100.

Consider `CSCCC1NC(=O)C(CCSC)NC1=O` (stereo not drawn) [compound 12, Cyclo(Met-Met)], for which, for the setting “Table 9, Experiment 4”, the “Significant difference (p < 0.05) vs control group, plasma active GLP-1 level” value is given as “No” and the “Plasma active GLP-1 level (relative value to control group as 100), average value” turned out to be 110.

For the compound `O=C1NC(Cc2ccccc2)C(=O)N2CCCC12` (stereo not drawn) [compound 13, Cyclo(Phe-Pro)], where the note is “Table 9, Experiment 4”, the “Significant difference (p < 0.05) vs control group, plasma active GLP-1 level” value is “No” and the “Plasma active GLP-1 level (relative value to control group as 100), average value” turned out to be 120.

Consider `CC[C@H](C)[C@@H]1NC(=O)[C@H]([C@@H](C)CC)NC1=O` [compound 14, Cyclo(Ile-Ile)], for which, for the setting “Table 9, Experiment 4”, the “Significant difference (p < 0.05) vs control group, plasma active GLP-1 level” value was “No” and the “Plasma active GLP-1 level (relative value to control group as 100), average value” came out at 105.

As for `CC(C)C[C@@H]1NC(=O)[C@H](CC(C)C)NC1=O` [compound 15, Cyclo(Leu-Leu)], for the setting “Table 9, Experiment 4”, the “Significant difference (p < 0.05) vs control group, plasma active GLP-1 level” value is given as “No” and the “Plasma active GLP-1 level (relative value to control group as 100), average value” was determined as 95.

With `CC(C)C[C@@H]1NC(=O)[C@H](Cc2ccccc2)NC1=O` [compound 16, Cyclo(Leu-Phe)], for the setting “Table 9, Experiment 4”, the “Significant difference (p < 0.05) vs control group, plasma active GLP-1 level” value is “No” and the “Plasma active GLP-1 level (relative value to control group as 100), average value” came out at 105.

As for `O=C1N[C@@H](Cc2ccccc2)C(=O)N[C@H]1Cc1ccccc1` [compound 17, cyclo-phenylalanyl-phenylalanine], under “Table 8, Experiment 3”, the “Significant difference (p < 0.05) vs control group, plasma active GLP-1 level” value is given as “Yes” and the “Plasma active GLP-1 level (relative value to control group as 100), average value” was 203.

Regarding `O=C1N[C@@H](Cc2c[nH]c3ccccc23)C(=O)N[C@H]1Cc1ccc(O)cc1` [compound 22, cyclo-tryptophanyl-tyrosine], where the note is “Table 8, Experiment 3”, the “Significant difference (p < 0.05) vs control group, plasma active GLP-1 level” value is “Yes” and the “Plasma active GLP-1 level (relative value to control group as 100), average value” is given as 203.

Take `O=C1CNC(=O)C(Cc2c[nH]c3ccccc23)N1` (stereo not drawn) [compound 26, cyclo-glycyl-tryptophan]: under “Table 8, Experiment 3”, the “Significant difference (p < 0.05) vs control group, plasma active GLP-1 level” value is “Yes” and the “Plasma active GLP-1 level (relative value to control group as 100), average value” is on record as 264.

As to `O=C1NC(Cc2c[nH]c3ccccc23)C(=O)NC1Cc1ccccc1` (stereo not drawn) [compound 28, cyclo-phenylalanyl-tryptophan], under “Table 8, Experiment 3”, the “Significant difference (p < 0.05) vs control group, plasma active GLP-1 level” value is reported as “Yes” and the “Plasma active GLP-1 level (relative value to control group as 100), average value” turned out to be 255.

As to `O=C1N[C@@H](Cc2ccc(O)cc2)C(=O)N[C@H]1CO` [compound 29, Cyclo(Ser-Tyr)], where the note is “Table 9, Experiment 4”, the “Significant difference (p < 0.05) vs control group, plasma active GLP-1 level” value is “No” and the “Plasma active GLP-1 level (relative value to control group as 100), average value” was 95.

In the case of `O=C1N[C@@H](Cc2ccc(O)cc2)C(=O)N2CCC[C@@H]12` [compound 30, Cyclo(Pro-Tyr)], under “Table 9, Experiment 4”, the “Significant difference (p < 0.05) vs control group, plasma active GLP-1 level” value is listed as “No” and the “Plasma active GLP-1 level (relative value to control group as 100), average value” is recorded as 95.

As to `O=C(O)C[C@@H]1NC(=O)[C@H](Cc2ccccc2)NC1=O` [compound 33, Cyclo(Asp-Phe)], under “Table 9, Experiment 4”, the “Significant difference (p < 0.05) vs control group, plasma active GLP-1 level” value was “No” and the “Plasma active GLP-1 level (relative value to control group as 100), average value” worked out at 90.

Turning to `O=C1N[C@@H](Cc2cnc[nH]2)C(=O)N[C@H]1Cc1ccccc1` [compound 38, cyclo-histidyl-phenylalanine], for the setting “Table 8, Experiment 3”, the “Significant difference (p < 0.05) vs control group, plasma active GLP-1 level” value is given as “Yes” and the “Plasma active GLP-1 level (relative value to control group as 100), average value” amounted to 264.

Regarding `CC(C)C[C@@H]1NC(=O)[C@H](Cc2c[nH]c3ccccc23)NC1=O` [compound 39, cyclo-leucyl-tryptophan], for the setting “Table 8, Experiment 3”, the “Significant difference (p < 0.05) vs control group, plasma active GLP-1 level” value was “Yes” and the “Plasma active GLP-1 level (relative value to control group as 100), average value” is reported as 229.

As for `O=C1CNC(=O)C(Cc2ccc(O)cc2)N1` (stereo not drawn) [compound 42, Cyclo(Tyr-Gly)], under “Table 10, Experiment 5”, the “Significant difference (p < 0.05) vs control group, plasma active GLP-1 level” value is “No” and the “Plasma active GLP-1 level (relative value to control group as 100), average value” worked out at 97.

`CC(C)C[C@@H]1NC(=O)[C@H](C)NC1=O` [compound 44, cyclo-alanyl-leucine]: for the setting “Table 8, Experiment 3”, the “Significant difference (p < 0.05) vs control group, plasma active GLP-1 level” value is recorded as “Yes” and the “Plasma active GLP-1 level (relative value to control group as 100), average value” was 255.

For the compound `O=C1N[C@@H](Cc2ccc(O)cc2)C(=O)N[C@H]1Cc1ccc(O)cc1` [compound 49, Cyclo(Tyr-Tyr)], for the setting “Table 10, Experiment 5”, the “Significant difference (p < 0.05) vs control group, plasma active GLP-1 level” value is recorded as “No” and the “Plasma active GLP-1 level (relative value to control group as 100), average value” came to 100.

As to `CC1NC(=O)C(Cc2ccccc2)NC1=O` (stereo not drawn) [compound 52, Cyclo(Ala-Phe)], where the note is “Table 10, Experiment 5”, the “Significant difference (p < 0.05) vs control group, plasma active GLP-1 level” value is “No” and the “Plasma active GLP-1 level (relative value to control group as 100), average value” was determined as 93.

Consider `O=C(O)CCC1NC(=O)C(Cc2ccccc2)NC1=O` (stereo not drawn) [compound 53, Cyclo(Glu-Phe)], for which, for the setting “Table 10, Experiment 5”, the “Significant difference (p < 0.05) vs control group, plasma active GLP-1 level” value is “No” and the “Plasma active GLP-1 level (relative value to control group as 100), average value” is 93.

Take `CC(C)[C@@H]1NC(=O)[C@H](Cc2ccccc2)NC1=O` [compound 54, Cyclo(Val-Phe)]: the “Significant difference (p < 0.05) vs control group, plasma active GLP-1 level” value is, setting by setting: (Table 6, Experiment 1) “No”; (Table 10, Experiment 5) “No”.

For `CCC(C)C1NC(=O)C(Cc2ccccc2)NC1=O` (stereo not drawn) [compound 55, Cyclo(Ile-Phe)], for the setting “Table 10, Experiment 5”, the “Significant difference (p < 0.05) vs control group, plasma active GLP-1 level” value is “No” and the “Plasma active GLP-1 level (relative value to control group as 100), average value” amounted to 90.

For the compound `CC(O)C1NC(=O)C(Cc2ccccc2)NC1=O` (stereo not drawn) [compound 56, Cyclo(Thr-Phe)], for the setting “Table 10, Experiment 5”, the “Significant difference (p < 0.05) vs control group, plasma active GLP-1 level” value is given as “No” and the “Plasma active GLP-1 level (relative value to control group as 100), average value” worked out at 87.

Consider `CC(C)[C@@H]1NC(=O)[C@H](Cc2c[nH]c3ccccc23)NC1=O` [compound 61, Cyclo(Trp-Val)], for which, for the setting “Table 8, Experiment 3”, the “Significant difference (p < 0.05) vs control group, plasma active GLP-1 level” value is given as “No” and the “Plasma active GLP-1 level (relative value to control group as 100), average value” was found to be 117.

As to `CCC(C)C1NC(=O)C(Cc2c[nH]c3ccccc23)NC1=O` (stereo not drawn) [compound 62, Cyclo(Trp-Ile)], under “Table 8, Experiment 3”, the “Significant difference (p < 0.05) vs control group, plasma active GLP-1 level” value was “No” and the “Plasma active GLP-1 level (relative value to control group as 100), average value” stood at 178.

For `NC(=O)CC1NC(=O)C(Cc2ccccc2)NC1=O` (stereo not drawn) [compound 64, Cyclo(Asn-Phe)], under “Table 10, Experiment 5”, the “Significant difference (p < 0.05) vs control group, plasma active GLP-1 level” value is “No” and the “Plasma active GLP-1 level (relative value to control group as 100), average value” was 93.

For `CSCCC1NC(=O)C(Cc2ccccc2)NC1=O` (stereo not drawn) [compound 67, Cyclo(Met-Phe)], under “Table 10, Experiment 5”, the “Significant difference (p < 0.05) vs control group, plasma active GLP-1 level” value is “No” and the “Plasma active GLP-1 level (relative value to control group as 100), average value” is 93.

`CSCCC1NC(=O)C(CCCCN)NC1=O` (stereo not drawn) [compound 70, Cyclo(Met-Lys)]: for the setting “Table 10, Experiment 5”, the “Significant difference (p < 0.05) vs control group, plasma active GLP-1 level” value is listed as “No” and the “Plasma active GLP-1 level (relative value to control group as 100), average value” was 93.

Turning to `CCC(C)C1NC(=O)C(CC(C)C)NC1=O` (stereo not drawn) [compound 71, Cyclo(Ile-Leu)], under “Table 11, Experiment 6”, the “Significant difference (p < 0.05) vs control group, plasma active GLP-1 level” value is listed as “No” and the “Plasma active GLP-1 level (relative value to control group as 100), average value” worked out at 79.

On to `CSCC[C@@H]1NC(=O)[C@H](CC(C)C)NC1=O` [compound 72, Cyclo(Met-Leu)], for which, for the setting “Table 11, Experiment 6”, the “Significant difference (p < 0.05) vs control group, plasma active GLP-1 level” value is reported as “No” and the “Plasma active GLP-1 level (relative value to control group as 100), average value” is 90.

As to `O=C1N[C@@H](Cc2c[nH]c3ccccc23)C(=O)N[C@H]1Cc1c[nH]c2ccccc12` [compound 75, cyclo-tryptophanyl-tryptophan], where the note is “Table 8, Experiment 3”, the “Significant difference (p < 0.05) vs control group, plasma active GLP-1 level” value is “Yes” and the “Plasma active GLP-1 level (relative value to control group as 100), average value” stood at 229.

With `CC1NC(=O)C(Cc2c[nH]c3ccccc23)NC1=O` (stereo not drawn) [compound 76, Cyclo(Trp-Ala)], under “Table 11, Experiment 6”, the “Significant difference (p < 0.05) vs control group, plasma active GLP-1 level” value is “No” and the “Plasma active GLP-1 level (relative value to control group as 100), average value” was 110.

For `O=C(O)CCC1NC(=O)C(Cc2c[nH]c3ccccc23)NC1=O` (stereo not drawn) [compound 77, Cyclo(Trp-Glu)], for the setting “Table 11, Experiment 6”, the “Significant difference (p < 0.05) vs control group, plasma active GLP-1 level” value is “No” and the “Plasma active GLP-1 level (relative value to control group as 100), average value” is listed as 110.

For `C[C@@H](O)[C@@H]1NC(=O)[C@H](Cc2c[nH]c3ccccc23)NC1=O` [compound 79, Cyclo(Trp-Thr)], where the note is “Table 11, Experiment 6”, the “Significant difference (p < 0.05) vs control group, plasma active GLP-1 level” value was “No” and the “Plasma active GLP-1 level (relative value to control group as 100), average value” was found to be 100.

For `NC(=O)CC1NC(=O)C(Cc2c[nH]c3ccccc23)NC1=O` (stereo not drawn) [compound 81, Cyclo(Trp-Asn)], under “Table 11, Experiment 6”, the “Significant difference (p < 0.05) vs control group, plasma active GLP-1 level” value is given as “No” and the “Plasma active GLP-1 level (relative value to control group as 100), average value” is listed as 100.
